Source: patent publication US12678412B2, “Substituted tolans for the modulation of microbial colonization” (BioMendics, LLC, priority 2017, dated 2026)

Experiments:
[1] = system: NEB 5 α competent E. coli; test: Bacterial colony forming assay (Examples 6-9); format: cell-based; conditions: for Effect on E. coli colony count: PEG-400/HPβCD mixed into alcohol gel, FIG. 1; for Inhibition of E. coli growth: alcohol gel formulation, FIG. 2
Method: NEB 5 α competent E. coli were retrieved from frozen cultures and grown overnight in a bacterial incubator at 37° C. Proliferating cultures of bacteria were used in a colony forming assay by adding 25 μL of bacteria from the overnight culture to 10 mL of fresh Lysogeny Broth (LB; Bertani, G. (2004). “Lysogeny at mid-twentieth century: P1, P2, and other experimental systems”. Journal of Bacteriology. 186 (3): 595-600. PMC 321500. PMID 14729683. doi:10.1128/JR.186.3.595-600.2004). 1 mL of this diluted bacteria was added to various dilutions of formulations of substituted tolan compounds as described in Table C, below and in charts of the corresponding Figures.
One mL of each formulation was mixed with 1 mL of diluted bacteria in LB and put onto agar plates. Alcohol gels were allowed to dry and incubated overnight for 16-18 hrs. Control plates consisted of 2 mL alcohol gel plus 1 mL diluted bacteria, resulting in a colony count of less than 10 colonies, a 1 mL alcohol gel plus 1 mL diluted bacteria, resulting in a partial lawn of bacteria (colonies were too close to count appropriately), 1 mL diluted bacteria alone, resulting in a full lawn of bacteria (no distinguishable colonies), and an appropriate dilution of PEG-400 and HPβCD into 1 mL of alcohol gel plus 1 mL diluted bacteria, resulting in a lawn of bacteria. Plate area was then selected and the Image J colony counter was used to obtain colony counts (Size (pixels squared) 5-1000 and circularity 0.5-1).

[2] = system: Candida albicans ATCC 64550; test: Colony forming assay, spread plate, Candida albicans; format: cell-based; conditions: Formulation C, compared to low dose, vehicle, Tobramycin and untreated control, 24 h, FIG. 8
Method: A fresh culture of pathogenic isolate was used in these examples. The bacterial strains used were Methicillin Resistant Staphylococcus aureus (MRSA USA 300), Pseudomonas aeruginosa ATCC 27312, and Candida albicans ATCC 64550.
FIG. 5 illustrates the spread plate method used in these examples. In sum, agar plates were made, bacteria were diluted to 10^6 or 10^8 CFU/mL, bacteria and drug were mixed together and then plated. Glass spreading beads were used because they give a better bacterial spread. Plates were incubated for 24 hrs then the colonies that formed were counted.
Proliferating cultures of Pseudomonas aeruginosa (PA, ATCC 27312) and Candida albicans (CA, ATCC 64550) were used in a colony forming assay. Freeze-dried bacteria cultures were recovered by swabbing a 3-cm diameter growth area and resuspending it to obtain a final inoculum suspension of approximately 10^6 CFU/mL. The concentration was confirmed using historical optical density measurements. […] Plates were photographed and counted. […]
Colony counts for each treatment were tabulated and the Log of the colony forming units/mL (Log CFU/mL) were determined. The mean and standard deviation of the Log CFU/mL were calculated for each treatment. […]

COc1ccc(C#Cc2ccc(O)cc2)cc1 [BM3103, 4-hydroxy-4′-methoxytolan]
Effect on E. coli colony count ([1]; 280 μM (62.5 μg/mL) dilution): reduced the E. coli colony count considerably | Effect on E. coli colony count ([1]; 557 μM (125 μg/mL) dilution): reduced colonization even more | Inhibition of E. coli growth ([1]; 2.23 mM (500 μg/mL)): inhibited E. coli growth completely | Inhibition of E. coli growth ([1]; 4.45 mM (1000 μg/mL)): inhibited E. coli growth completely | Reduction of CA counts ([2]; high dose 0.5% w/v, 22 mM): about 4 fold | Reduction of CA counts ([2]; medium dose 0.25% w/v, 11 mM): about 4 fold
